From patent US20240315992A1, “AMINOXY ACID-BASED ANTIBACTERIAL COMPOUNDS AND METHODS THEREOF” (The University of Hong Kong, priority 2023, published 2024)
In brackets after ≈: the same amount, converted by molar mass.

What was measured:
[1] = tested on: Staphylococcus aureus Mu3 cytoplasmic calcium; experiment: Calcium influx monitored by Fluo-4-AM; type: cell-based; conditions: Fluo-4-AM fluorescence
Procedure: FIG. 12 is a line graph showing compound 8 can induce calcium influx into cytoplasm. The fluorescence of the Fluo-4-AM loaded in Staphylococcus aureus Mu3 was monitored for 10 minutes. The average of fluorescence in this period was assigned as F0. At t=10 minutes, different concentration of compound 8 was added to bacteria medium and then the fluorescence was further monitored for 40 minutes. Calcium ion transporter ionomycin was used as the positive control. The fluorescence Ft was normalized to initial fluorescence F0. Data represented the mean of biological triplicates.
Briefly, an overnight culture of MRSA Mu3 was sub-cultured 1:100 in fresh CAMH and regrown to exponential phase. The bacteria were washed twice and then re-suspended in PBS (OD595=0.5) containing 5 μM Fluo-4-AM. The bacteria were further incubated at 37° C. in dark for 2 hours before they were washed twice and resuspended into PBS containing 0.5 mM calcium chloride. 200 μL bacteria culture were then added into 96-well plate for each well. The plate was then pre-warmed and the fluorescence was monitored for 10 minutes for background measurement (excitation wavelength: 485 nm, emission wavelength: 535 nm). Fluorescence signal was recorded by Beckman Coulter DTX 880 Multimode Detector. Compounds were then added to 96-well plate and the fluorescence was further monitored for 5 minutes. […]

[2] = tested on: E. faecalis clinical strain; experiment: MIC by CLSI broth micro-dilution, E. faecalis; type: cell-based; conditions: Enterococcus faecalis, BHI medium, read-out: Minimum inhibitory concentration
Procedure: (§1) Aminoxy acids were synthesized by the standard peptide coupling procedures. Minimum inhibitory concentration was determined using CLSI broth micro-dilution method in 96-wells microtitre plates. Minimum inhibitory concentration is defined as the lowest concentration of the compound that inhibits visible growth of the bacteria. All experiments were performed three times. 24 compounds including aminoxy acid monomers and dipeptides have been identified to show toxicity against multidrug resistant Staphylococcus aureus Mu3 and summarized in Table 1. The minimum inhibitory concentration of compound 8 and compound 35 on other gram-positive bacteria was also evaluated and summarized in Table 2. […] As shown in FIGS. 3A-3B there are no observable hemolysis for compound 8 and compound 35 towards human red blood cell.
(§2) Bacteria were streaked from the glycerol stock into BHI agar and were incubated overnight. Single colony was picked for the overnight culture in cation-adjusted Mueller Hinton broth (CAMH), LB or BHI. The overnight culture was sub-cultured and regrew to exponential phase for the experiment.
(§3) MIC was determined by CLSI broth micro-dilution method in 96-wells microtitre plates. […] Optical density was recorded by DTX 880 multimode detector (Beckman Coulter, California, US). […]

[3] = tested on: MRSA Mu3 cell membrane potential; experiment: Membrane potential monitored by DiSC3(5); type: cell-based, Staphylococcus aureus
Procedure: FIG. 11 is a line graph showing compound 8 can depolarize Staphylococcus aureus cell membrane under sub-inhibitory concentration and hyperpolarize Staphylococcus aureus cell membrane under inhibitory concentration. Membrane potential was monitored by DiSc3(5) over time (s). Extracellular buffer contained 10 mM HEPEs buffer, 5 mM glucose and 100 mM NaCl, pH 7.1. At t=100 s, 6 μL different concentration of compound 8 and 10 mM valinomycin (Vln) were added to 594 μL MRSA Mu3 pre-incubated with 0.4 μM DiSC3(5). The fluorescence signal was further monitored for 500 s. Data represented the mean±S.D. of technical triplicates.
Typically, an overnight culture of MRSA Mu3 was sub-cultured 1:100 in fresh CAMH and regrown to exponential phase. The bacteria were harvested (3,000×g, 5 min), washed, and re-suspended in a solution with 10 mM HEPEs buffer, 5 mM glucose and 100 mM KCl or 100 mM NaCl (pH 7.2). The bacteria were diluted to OD595 0.3 with the same buffer. […] Bacteria were incubated in darkness for 20 minutes or until fluorescence signal become stable. Fluorescence signal was recorded using Hitachi F-4500 Florescence Spectrometer. In a 1 mL cuvette, 594 μL bacteria incubated with DiSC3(5) were added and the fluorescence was monitored for 100 s. […] The fluorescence was monitored for further 500 s. […]

[4] = tested on: MSSA ATCC 6538; experiment: MIC by CLSI broth micro-dilution, MSSA ATCC 6538; type: cell-based; conditions: Staphylococcus aureus, read-out: Minimum inhibitory concentration
Procedure: as §1, §2, §3

[5] = tested on: MIHA; experiment: Mammalian cell cytotoxicity assay (MTT), MIHA; type: cell-based; conditions: at 16 folded MIC (50 μM compound 8, 12.5 μM compound 35)
Procedure: FIGS. 2A-2B are the bar graphs showing the cytotoxicity of compound 8 (FIG. 2A) and compound 35 (FIG. 2B) towards mammalian cell NIH3T3, MDCK and MIHA. % survival is mean±S.D normalized to DMSO as the negative control of a representative experiment. Biological triplicates were conducted.
In the treated culture dish, cells were washed by PBS and then trypsinized. DMEM was added to quench the reaction. Cells were centrifuged and resuspended into fresh DMEM. Cells were then seeded in 96-well microtitre plate (100 μL, 5000 cells per well) for 24 hours before addition of compounds. The compounds were two-fold serial diluted by DMSO in a DMSO-compatible 96-well plate. 1 μL of compound in DMSO is transferred into the 96-well microtitre preparation plate containing 100 μL DMEM medium. The medium in culture plate was removed and compounds in preparation plate were transferred to culture plate. Equal volume of DMSO was used as negative control.
After 24 hours of incubation of cells, cell viability was measured by MTT assay. In MTT assay, 20 μL 5 mg/mL MTT solution in PBS was added to cell medium and cultured for 3 hours. The medium was then removed and 50 μL DMSO was added and cultured for 10 minutes. Absorbance at 595 nm was measured spectrophotometrically (Beckman Coulter DTX 880 Multimode Detector) and normalized to DMSO group. Biological replicates were performed.

Row | Structure (SMILES) | calcium influx into cytoplasm [1] | MIC [2] | cell membrane potential under inhibitory concentration ([3]; inhibitory concentration) | cell membrane potential under sub-inhibitory concentration ([3]; sub-inhibitory concentration) | MIC [4] | toxicity against mammalian cell MIHA [5]
1 | CC(C)C[C@H](ONC(=O)[C@@H](COCc1ccccc1)ONC(=O)c1cc(C(F)(F)F)cc(C(F)(F)F)c1)C(=O)Nc1ccccc1 [Compound 8] | can induce calcium influx into cytoplasm in concentration dependent manner | 3.13 µM (≈ 2.05 µg/mL) | hyperpolarize | depolarize | 3.13 µM (≈ 2.05 µg/mL) | minimal toxicity
2 | CC(C)C[C@H](ONC(=O)[C@@H](COCc1ccccc1)ONC(=O)c1cc(C(F)(F)F)cc(C(F)(F)F)c1)C(=O)Nc1ccc2c(c1)OC(F)(F)O2 [Compound 35] |  | 6.25 µM (≈ 4.6 µg/mL) |  |  | 1.56 µM (≈ 1.15 µg/mL) | minimal toxicity
